Laboratory results as given in patent US5981494A, “Use of glycosidase inhibitors” (University College London, priority 1997, dated 1999).

Experiments:
[1] = α-galactosidase hydrolysis of p-nitrophenyl-α-D-galactopyranoside (αPNP-Gal); assay type: biochemical
Procedure: (§1) (One of 2 experiments) (A) Rate of reaction of 0.04 U/ml of α-galactosidase at 37° C. with p-nitrophenyl-α-D-galactopyranoside as substrate as determined over the first 3 mins. (B) Malaria toxin from P. yoelii diluted 1/10 and (C) 50 ng/ml of LPS were incubated overnight at 37° C. with 2 U/ml of α-galactosidase,then boiled and tested on macrophages for TNF induction, assayed by ELISA. (Means of duplicates).
The α-galactosidase hydrolysis of p-nitrophenyl-α-D-galactopyranoside (αPNP-Gal) is optimal at pH 6.0 (4, 9) and undetectable at pH 8.0 (9), as we confirmed, but enhancement of TNF-induction by malaria toxin was greatest at pH 8.0 (FIG. 2.). […] The degree of enhancement also varied with the concentration of LPS, and at higher concentrations enhancement was also detectable at pH 6.0.

[2] = β-galactosidase activity against βPNP-Gal; assay type: biochemical; details: pH 6.0; α-galactosidase preparations
Description: This was supported by the observation of batch to batch variability and the fact that the stability of the TNF-enhancing activity differed from the αPNP-Gal activity. Although all enzyme preparations were first dialysed and adjusted to the same activity against αPNP-Gal, batches from different sources enhanced to different degrees (as illustrated in FIG. 1). […] Apart from BSA, all preparations contained 3 bands of 33 kD, 29 kD and 27 kD; 28 kD and 36.5 kD isoforms were previously described (4).

[3] = system: thioglycollate-induced peritoneal macrophages; assay: TNF induction from thioglycollate-induced peritoneal macrophages (ELISA and L929 cytotoxicity bioassay); assay type: cell-based, murine
Procedure: Serial dilutions of an extract of parasitized RBC which (undiluted) induced 435 ng/ml of TNF as determined by ELISA and 30,400 U/ml in the bioassay were incubated at pH 8.0 at 37° C. overnight with a series of concentrations of α-galactosidase from Sigma or from Oxford Glycosystems, boiled, neutralised and then tested on macrophages for TNF induction by bioassay and ELISA (means of duplicates). The amount of TNF that would have been induced by the original undiluted extract was then calculated.
as §1
Mice bred at University College London ((CBA×Balb/c)F1 or CBA×C57B1) F1) were infected with P. yoelii YM or P. berghei ANKA. Parasitized RBC (1×10^8/ml)in Earle's Balanced Salt Solution (BSS; Life Technologies Ltd, Paisley, U.K.) were incubated at 37° C. overnight, then disrupted by freezing and thawing, digested overnight with 250 μg pronase E (Sigma) per mg of protein (determined by BioRad assay), boiled, treated with 25 μg/ml polymyxin B agarose (Sigma) to eliminate endotoxin, filtered through a 0.2-μm filter (Sartorius AG, Gottingen, Germany) and stored at 4° C. (24). TNF induction from thioglycollate-induced peritoneal macrophages and ELISA assays for murine TNF were described previously (24). Polymyxin B (5 μg/ml) was included in all experiments with malaria toxin to exclude effects from contaminating LPS. A more sensitive one-plate procedure for TNF production and assay was also used (5). Cytotoxicity assays for TNF were done using L929 cells (23). Green coffee bean α-D-galactosidase was obtained from 2 sources (Sigma, Poole, Dorset, UK and Oxford GlycoSystems Ltd, Abingdon, Oxford UK).

## α-galactosidase: Green coffee bean α-D-galactosidase obtained from Sigma and Oxford GlycoSystems
[1]
  pH optimum of hydrolysis of αPNP-Gal: 6.0 pH
[1]; pH 8.0
  hydrolysis of αPNP-Gal at pH 8.0: undetectable
[2]
  β-galactosidase activity against βPNP-Gal: No β-galactosidase activity was detectable
[3]; 2 U/ml enzyme for 1 hr at 37° C., then toxin or 2 or 10 ng/ml LPS
  TNF secretion of macrophages pre-treated with enzyme, then stimulated with toxin or LPS: did not secrete more TNF than untreated cells
[3]; 2 U/ml enzyme only
  TNF induction from macrophages incubated with enzyme only: No TNF was induced
[3]; bacterial derived LPS treated with the enzyme
  increase in potency of LPS in stimulating the release of TNFα from macrophages: 10-100 fold
[3]; boiled enzyme
  enhancement of TNF induction with boiled enzyme: no enhancement occurred
[3]; extracts of RBC infected with P. yoelii or P. berghei
  enhancement of TNF induction by malaria toxin (extracts of infected RBC) pre-treated with enzyme: Significant increase in TNF-induction
[3]; overnight at 37° C. with 2 U/ml enzyme
  pH of greatest enhancement of TNF-induction by malaria toxin: 8.0 pH
[3]; similar pH profile to the toxin
  enhancement of TNF-inducing activity of LPS: also enhanced
[3]; storage at 4° C.
  stability of TNF-enhancing capacity on storage: deteriorated
